Measurements: patent US20240115709A1, “ASSEMBLY OF ORGANIC SUPRAMOLECULAR VESSELS FOR CONTROLLED DRUG RELEASE” (NOBLE PANACEA LABS, INC., priority 2021, published 2024)
Values after ≈ are worked out from the molar mass of the structure shown. Read-outs that look alike come from different tables or passages of the source. One block for each compound: values may come before it.

How the values were obtained:
[1] = cited from earlier work
[2] = Solubility in water and solvents; format: physicochemical
[3] = Release/diffusion using Franz diffusion cell with artificial membrane; format: in vitro ADME; conditions: control, OA only, within 4 hours
[4] = 20° C., reported value; cited from earlier work
[5] = Thermogravimetric analysis (thermal stability); format: physicochemical; conditions: 250-380° C., argon atmosphere
Description: The thermal stability of the γ-CD. γ-CDP and γ-CDP has been investigated (FIG. 4) using thermogravimetric analysis which was carried out in argon atmosphere. […] This weight loss may be associated to the decomposition of the ester functional groups attaching the aliphatic chains to the CD.
Thermogravimetric (TGA, Netzsch) was carried out from room temperature to 400° C. at a ramping rate of 5° C. min−1 under an Ar flow.

Structure (SMILES): O=C1O[C@H]([C@@H](O)CO)C([O-])=C1OP(=O)([O-])[O-].O=C1O[C@H]([C@@H](O)CO)C([O-])=C1OP(=O)([O-])[O-].[Mg+2].[Mg+2].[Mg+2] [magnesium ascorbyl phosphate (MgAsc), magnesium ascorbyl phosphate]
solubility in water [1]: 8.1 mg/mL

solubility in EtOAc upon addition of the CDOs [2]: increases significantly
solubility in EtOAc ([2]; alone): low solubility
Structure (SMILES): NC(=O)c1cccnc1 [niacinamide]

diffusion through the membrane [3]: 92%
Structure (SMILES): CN(C)c1ccc2cc3ccc(N(C)C)cc3nc2c1.Cl [Orange Acridine hydrochloride (OA), Orange Acridine hydrochloride]
solubility in water ([1]; 23° C.): 6 mg/mL

Structure (SMILES): Oc1ccc(C=Cc2cc(O)cc(O)c2)cc1 [resveratrol]
solubility in water [1]: 0.05 mg/mL (≈ 219 µM)

Structure (SMILES): Cc1c(C)c2c(c(C)c1O)CC[C@@](C)(CCC[C@H](C)CCC[C@H](C)CCCC(C)C)O2 [α-tocopherol]
viscosity [4]: 4.6 Pa·s

Structure (SMILES): CCCCCCCC/C=C\CCCCCCCC(=O)O [oleic acid]
viscosity [4]: 0.0348 Pa·s

weight loss [5]: 60%
Structure (SMILES): OC[C@H]1O[C@@H]2O[C@H]3[C@H](O)[C@@H](O)[C@@H](O[C@H]4[C@H](O)[C@@H](O)[C@@H](O[C@H]5[C@H](O)[C@@H](O)[C@@H](O[C@H]6[C@H](O)[C@@H](O)[C@@H](O[C@H]7[C@H](O)[C@@H](O)[C@@H](O[C@H]8[C@H](O)[C@@H](O)[C@@H](O[C@H]9[C@H](O)[C@@H](O)[C@@H](O[C@H]1[C@H](O)[C@H]2O)O[C@@H]9CO)O[C@@H]8CO)O[C@@H]7CO)O[C@@H]6CO)O[C@@H]5CO)O[C@@H]4CO)O[C@@H]3CO [γ-CD, γ-Cyclodextrin]
